Source: patent US12053467B2, “Method of treating fibrosis” (NovMeta Pharma Co., Ltd., priority 2020, dated 2024)

Tests used:
[1] = test system: Collagen 4 (Col4); experiment: Col4 mRNA (real-time PCR) in bleomycin-induced pulmonary fibrosis mice; type: in vivo, ICR mice; details: lung, 5, 25, 50 and 100 mg/kg/day oral, daily for 4 weeks, vs BLM alone (set 1.0)
Experimental: (§1) Seven-week-old male ICR mice from Koatech Co. Ltd (Gyeonggi-do, Korea). All animal experiments were approved by the Ethics Review Committee of the Advanced Bio Convergence Center, Republic of Korea. Mice were housed in specific pathogen-free conditions with a 12 hr light-dark cycle and had free access to water and food. Body weight and caloric intake were monitored throughout the experiments. The mice were housed in single cage and food intake was calculated of each animals in the cage. 5 or 25 or 50 or 100 mg/kg/day CHP monohydrate, 5 mg/kg/day CHP+10 mg/kg/day Zn, or PBS (vehicle control), was orally administered daily for 4 weeks. At the conclusion of the in vivo experiment, the mice were sacrificed and tissues were collected and weighed. Tissue samples were stored at −80° C. until analysis.
(§2) Mice maintained under anesthesia with isoflurane were intravenously administered bleomycin 75 mg/kg in saline. […]
(§3) Total RNA was prepared by an RNeasy Mini kit (QIAGEN) according to the manufacturer's instructions. RNA integrity was assessed by an automated microfluidics-based system (Bioanalyzer 2100, Agilent, Palo Alto, CA, USA). […] A melt curve was produced to confirm a single gene-specific peak and detect primer/dimer formation by heating the samples from 65 to 95° C. in 0.5° C. increments with a dwell time at each temperature of 10 sec while continuously monitoring fluorescence. […]

[2] = test system: Collagen 1 (Col1); experiment: Col1 mRNA (real-time PCR) in bleomycin-induced pulmonary fibrosis mice; type: in vivo, ICR mice; details: lung, 5, 25, 50 and 100 mg/kg/day oral, daily for 4 weeks, vs BLM alone (set 1.0)
Experimental: as §1, §2, §3

[3] = test system: bleomycin (BLM)-induced pulmonary fibrosis; experiment: Bleomycin-induced pulmonary fibrosis mouse model, overall effect; type: in vivo, ICR mice; details: 5, 25, 50 and 100 mg/kg/day oral, 4 weeks; compared to BLM alone group; FIGS. 1-7
Experimental: as §1, with “analysis. Mice maintained under anesthesia with isoflurane were intravenously administered bleomycin 75 mg/kg in saline. The first administration of CHP hydrate or CHP hydrate+Zn was performed 30 min after bleomycin administration.” for “analysis.”

[4] = test system: lung hydroxyproline (collagen deposition); experiment: Hydroxyproline assay of lung in bleomycin-induced IPF mice; type: in vivo, ICR mice; details: 5, 25, 50 and 100 mg/kg/day oral, daily for 4 weeks, vs BLM alone
Experimental: as §1
(§4) Mice maintained under anesthesia with isoflurane were intravenously administered bleomycin 75 mg/kg in saline. The first administration of CHP hydrate or CHP hydrate+Zn was performed 30 min after bleomycin administration.
Collagen deposition was determined by measuring the total hydroxyproline (HYP) content, which was measured by a HYP assay kit according to the provided manufacturer's protocol. […] After neutralization with hydrochloric acid, the hydrolyzation products were diluted with distilled water, and assessed at 550 nm and expressed as ug/10 mg.

[5] = test system: Collagen 3 (Col3); experiment: Col3 mRNA (real-time PCR) in bleomycin-induced pulmonary fibrosis mice; type: in vivo, ICR mice; details: lung, 5, 25, 50 and 100 mg/kg/day oral, daily for 4 weeks, vs BLM alone (set 1.0)
Experimental: as §1, §2, §3

[6] = pKa of CHP hydrate material; type: physicochemical; details: characterising feature (b)
[7] = test system: α-smooth muscle actin (aSMA); experiment: αSMA mRNA (real-time PCR) in bleomycin-induced pulmonary fibrosis mice; type: in vivo, ICR mice; details: lung, 5, 25, 50 and 100 mg/kg/day oral, daily for 4 weeks, vs BLM alone (set 1.0)
Experimental: as §1, §2, §3

[8] = test system: transforming growth factor-β (TGF-β); experiment: TGF-β mRNA (real-time PCR) in bleomycin-induced pulmonary fibrosis mice; type: in vivo, ICR mice; details: lung; 5, 25, 50 and 100 mg/kg/day oral, daily for 4 weeks; vs BLM alone (set 1.0)
Experimental: as §1, §2, §3

[9] = test system: fibronectin; experiment: Fibronectin mRNA (real-time PCR) in bleomycin-induced pulmonary fibrosis mice; type: in vivo, ICR mice; details: lung; 5, 25, 50 and 100 mg/kg/day oral, daily for 4 weeks; vs BLM alone (set 1.0)
Experimental: as §1, §2, §3

[10] = test system: fibronectin; experiment: Western blot of fibronectin in bleomycin-induced pulmonary fibrosis mice; type: in vivo, ICR mice; details: CHP 5 mg/kg oral, daily for 4 weeks; compared to BLM group
Experimental: as §1, §4
20-30 μg of lysates were separated on BOLT™ 4-12% Bis-Tris Plus gels with MES running buffer and transferred to nitrocellulose membranes using TRANS-BLOT® TURBO™ Transfer System (Bio-Rad). […]

[11] = test system: zinc absorption and uptake by muscle tissues and by intestinal segments; details: Life Sciences 70 (2001), 337-348; cited from earlier work

| SMILES | relative Col4 mRNA expression level ([1]; hydrate) | relative Col1 mRNA expression level ([2]; hydrate) | inflammation and fibrosis biomarkers [3] | lung hydroxyproline (HYP) content / accumulation of collagen in the lung ([4]; hydrate) | relative Col3 mRNA expression level ([5]; hydrate) | pKa [6] | relative αSMA mRNA expression level ([7]; hydrate) | relative Col4 mRNA expression level [1] | relative Col1 mRNA expression level [2] | relative TGF-β mRNA expression level [8] | relative fibronectin mRNA expression level [9] | fibronectin protein levels (Western blotting) [10] | lung hydroxyproline (HYP) content / accumulation of collagen in the lung [4] | relative Col3 mRNA expression level [5] | zinc absorption and uptake [11] | relative αSMA mRNA expression level [7] |
| --- | --- | --- | --- | --- | --- | --- | --- | --- | --- | --- | --- | --- | --- | --- | --- | --- |
| O=C1N[C@@H](Cc2cnc[nH]2)C(=O)N2CCC[C@@H]12 [CHP hydrate, cyclo(-His-Pro) hydrate] | dramatically reduced | dramatically reduced | significantly decreased | significantly decreased | dramatically reduced | ~6.4 | dramatically reduced | – | – | – | – | – | – | – | – | – |
| O=C1N[C@@H](Cc2cnc[nH]2)C(=O)N2CCC[C@@H]12 [CHP, Cyclo(-His-Pro)] | – | – | – | – | – | – | – | significantly reduces | significantly reduces | significantly reduces | significantly reduces | dramatically reduced | significantly reduces | significantly reduces | enhanced | significantly reduces |
